Measured values reported in US12201593B2, “Oral pharmaceutical formulations of bitter compounds for asthma” (Aardvark Therapeutics Inc., priority 2018, dated 2025).

Columns and labels:
[1] = system: primary human smooth muscle (HASM) cells; assay: FLECS bronchodilator assay: single-cell contractility of HASM cells after bradykinin/carbachol-induced contraction; format: cell-based; conditions: for relaxation of stimulated cells: HASM from asthmatic and non-asthmatic humans, stimulated to contract with bradykinin; for effect on contraction relative to control (FIG. 2): test agent 100 μM alone, stimulating agents BK and carbachol (10 μM), negative control 0.1% DMSO
Text: FIGS. 1A, 1B, and 1C show the bronchodilator assay workflow with a […] of FLECS. Each well holds ˜1,200 micro-patterns for sensing force-generation by single cells. […] The two cases represent the positive and negative controls for the assay.
An in vitro model using human airway smooth muscle cells (HASM) from both asthmatic patients and “normal” non-asthmatic humans was stimulated to contract with bradykinin.
The assay investigated bronchodilatation properties of bitter taste agonists, individually and in combination, administered to primary human smooth muscle (HASM) cells after inducing contraction with asthmatic agent bradykinin. HASM cells were obtained from asthmatic patients and “normal” or non-asthmatic patients. Each of 4 primary HASM cell lines (2 from healthy donors; 2 from asthmatic donors) were seeded on FLECSplates and were stimulated to contract via exposure to bradykinin (BK) or carbachol. […] Accordingly, at 15 minutes following exposure to BK, the cells were treated with a denatonium salt or 3-CQL for Example 1, or combinations thereof, as well as positive controls and negative controls. The cells were imaged at 5 minute intervals beginning with a baseline reading, out to 45 minutes. The measurement was attenuation of population wide BK-induced contractility by treatment of a test compound (or combination) relative to controls.
Each well holds ˜1,200 micro-patterns for sensing force-generation by single cells. […] The two cases represent the positive and negative controls for the assay.

TAS2R subtypes = conditions: cited from earlier work

SMILES	potency of formoterol alone (FIG. 2) ([1]; formoterol 1 μM, concentration reduced 50×)	relaxation of stimulated cells [1]	effect on contraction relative to control (FIG. 2) [1]	number of TAS2R subtypes activated (TAS2R subtypes)
COc1ccc(CC(C)NCC(O)c2ccc(O)c(NC=O)c2)cc1 (stereo not drawn) [formoterol, Formoterol]	not as potent as previous experiments			
CC[N+](CC)(CC(=O)Nc1c(C)cccc1C)Cc1ccccc1 [DS, denatonium saccharide]		did relax		
CC[N+](CC)(CC(=O)Nc1c(C)cccc1C)Cc1ccccc1 [DB, phenylmethyl-[2-[(2,6-dimethylphenyl)amino]-2-oxoethyl]-diethylammonium benzoate]			relaxing effect	8
O=C(/C=C/c1ccc(O)c(O)c1)O[C@@H]1C[C@](O)(C(=O)O)C[C@@H](O)[C@H]1O [3-CQL, 3-caffeoylquinic acid]		did not relax	increase contraction relative to control	
